For data set [1], the target named is T1, 26S proteasome non-ATPase regulatory subunit 14 (Homo sapiens, UniProt O00487). Kind of data set: Inhibition of 26S proteasome regulatory subunit RPN11 deubiquitinating activity in beta5 inhibitor MG132 pretreated human HeLa cells expressing UbG76V-GFP assessed as reduction in UbG76V-GFP degradation rate by fluorescence microscopic method. It is filed as cell-based.

For data set [2], the target named is COP9 signalosome complex subunit 5 (Homo sapiens, UniProt Q92905). As to the kind of experiment: Inhibition of CSN5 (unknown origin) using SCFskp2-Nedd8OG as substrate after 1 hr by fluorescence polarization assay.
In another data set the target is T2, STAM-binding protein (Homo sapiens, UniProt O95630).
T2 sequence (O95630 whole entry): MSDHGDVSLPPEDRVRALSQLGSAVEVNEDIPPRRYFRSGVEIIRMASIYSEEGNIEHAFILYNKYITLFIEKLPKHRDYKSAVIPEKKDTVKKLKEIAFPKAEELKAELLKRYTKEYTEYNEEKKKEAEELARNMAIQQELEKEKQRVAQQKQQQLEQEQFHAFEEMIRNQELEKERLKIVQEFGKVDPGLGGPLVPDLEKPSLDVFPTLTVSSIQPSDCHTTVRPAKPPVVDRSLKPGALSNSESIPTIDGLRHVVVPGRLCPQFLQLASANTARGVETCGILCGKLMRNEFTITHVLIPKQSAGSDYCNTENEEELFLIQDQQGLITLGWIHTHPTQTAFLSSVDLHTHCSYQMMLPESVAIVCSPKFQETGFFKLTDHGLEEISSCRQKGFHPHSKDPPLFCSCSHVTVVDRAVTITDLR
Kind of data set: Inhibition of AMSH (unknown origin) using DiUbK63TAMRA as substrate by fluorescence assay.

Data set [3] deals with T1, 26S proteasome non-ATPase regulatory subunit 14. Kind of data set: Inhibition of 26S proteasome regulatory subunit RPN11 deubiquitinating activity in human erythrocytes using Ub4-pepOG protein substrate preincubated for 1 hr followed by substrate addition measured after 80 mins by fluorescence polarization assay.
The next data set deals with HCT-116. Kind of data set: cells. The settings on record: Homo sapiens, HCT-116, 72 h.
The target in data set [4] is 72 kDa type IV collagenase (Homo sapiens, UniProt P08253). Kind of data set: Inhibition of recombinant human MMP2 catalytic domain (Tyr110 to Asp452 residues) expressed in yeast using Mca-Pro-Leu-Gly-Leu-Dpa-Ala-Arg-NH2.AcOH as substrate preincubated for 30 mins followed by substrate addition measured every minute for 20 mins by fluorescence assay.
Data set [5] in a line: Aqueous solubility of the compound. The class given is physicochemical. The settings on record: buffer.

SMILES strings stand for the structures.

COP9 signalosome complex subunit 5, sequence (Q92905 whole entry, one chain of several): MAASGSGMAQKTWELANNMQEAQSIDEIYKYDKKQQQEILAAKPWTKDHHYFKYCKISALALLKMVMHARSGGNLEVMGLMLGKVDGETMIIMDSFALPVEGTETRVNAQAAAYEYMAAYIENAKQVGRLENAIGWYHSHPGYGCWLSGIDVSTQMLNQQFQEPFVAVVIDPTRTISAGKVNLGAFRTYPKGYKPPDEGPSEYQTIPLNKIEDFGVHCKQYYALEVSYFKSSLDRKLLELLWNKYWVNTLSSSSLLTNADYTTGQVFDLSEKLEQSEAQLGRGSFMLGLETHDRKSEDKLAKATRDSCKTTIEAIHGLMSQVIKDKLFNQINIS
T1 sequence (O00487 whole entry): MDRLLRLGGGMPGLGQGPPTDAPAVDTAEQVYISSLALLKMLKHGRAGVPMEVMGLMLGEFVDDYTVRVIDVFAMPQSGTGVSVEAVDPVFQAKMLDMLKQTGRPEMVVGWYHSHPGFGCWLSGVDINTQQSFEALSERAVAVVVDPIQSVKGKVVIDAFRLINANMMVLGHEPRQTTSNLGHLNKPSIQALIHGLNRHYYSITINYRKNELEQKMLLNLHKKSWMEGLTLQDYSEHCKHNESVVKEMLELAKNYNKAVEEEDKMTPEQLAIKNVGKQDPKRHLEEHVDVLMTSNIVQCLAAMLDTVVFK
72 kDa type IV collagenase, sequence (P08253 whole entry, the tested form may be a part): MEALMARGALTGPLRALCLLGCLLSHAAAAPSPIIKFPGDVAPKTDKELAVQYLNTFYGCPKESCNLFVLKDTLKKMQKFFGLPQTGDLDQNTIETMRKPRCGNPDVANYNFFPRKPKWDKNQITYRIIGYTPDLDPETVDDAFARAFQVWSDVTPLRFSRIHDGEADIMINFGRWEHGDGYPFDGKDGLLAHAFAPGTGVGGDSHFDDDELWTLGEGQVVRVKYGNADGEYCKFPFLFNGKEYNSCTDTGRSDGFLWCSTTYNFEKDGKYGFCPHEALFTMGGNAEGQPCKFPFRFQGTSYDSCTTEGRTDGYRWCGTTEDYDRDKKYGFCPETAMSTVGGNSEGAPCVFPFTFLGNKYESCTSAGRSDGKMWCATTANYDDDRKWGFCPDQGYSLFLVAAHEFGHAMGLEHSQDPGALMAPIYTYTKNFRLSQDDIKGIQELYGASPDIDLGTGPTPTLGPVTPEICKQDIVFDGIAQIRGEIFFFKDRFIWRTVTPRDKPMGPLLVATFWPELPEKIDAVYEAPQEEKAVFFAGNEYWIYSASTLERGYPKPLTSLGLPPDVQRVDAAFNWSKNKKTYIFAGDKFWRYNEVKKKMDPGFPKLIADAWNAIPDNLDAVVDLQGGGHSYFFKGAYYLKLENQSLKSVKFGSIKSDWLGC
Description for HCT-116: Antiproliferative activity against human HCT116 cells after 72 hrs by Cell Titer-Glo assay

The term IC50 denotes the concentration that gives 50% inhibition. Consider `O=C(NCCN1CCOCC1)c1cnc2c(SSc3cccc4cc(C(=O)NCCN5CCOCC5)cnc34)cccc2c1`, for which the IC50 is over 10 µM in data set [1], over 100 µM in data set [2] and 26 µM on STAM-binding protein.

As to `Sc1cccc2ccccc12`, the IC50 in data set [3] was over 100000 nM; with HCT-116, over 100 µM.

As to `Cc1ccc2cccc(S)c2n1`, the IC50 in data set [4] was over 200 µM; in data set [3] it was over 100000 nM; in data set [2], over 100 µM; in the data set on HCT-116, over 50 µM.

`O=C(NCc1ccco1)c1cnc2c(SSc3cccc4cc(C(=O)NCc5ccco5)cnc34)cccc2c1`: the figures for the IC50 in data set [1] and in data set [2] were 1 µM and under 0.5 µM, respectively. In addition, the solubility entry in data set [5] is “Soluble”.

Take `O=C(NCc1cccs1)c1cnc2c(SSc3cccc4cc(C(=O)NCc5cccs5)cnc34)cccc2c1`: the IC50 in data set [1] came out at 5 µM. In data set [5], the solubility entry is recorded as “Soluble”.

In data set [3], `COC(=O)c1ccnc2c(SSc3cccc4c(C(=O)OC)ccnc34)cccc12` gave an IC50 of 1000 nM.

For `COC(=O)CNC(=O)c1cnc2c(SSc3cccc4cc(C(=O)NCC(=O)OC)cnc34)cccc2c1`, the IC50 was over 0.3 µM in data set [1], over 2000 nM in data set [3], over 100 µM in data set [2] and 2.2 µM on STAM-binding protein.

For the molecule `O=C(NCc1ccncc1)c1cnc2c(SSc3cccc4cc(C(=O)NCc5ccncc5)cnc34)cccc2c1`, the IC50 is over 10 µM in data set [1], 200 nM in data set [3], 7 µM in data set [2] and 0.5 µM on STAM-binding protein.

With `COC(=O)c1ccc2cccc(SSc3cccc4ccc(C(=O)OC)nc34)c2n1`, the IC50 in data set [3] is over 50000 nM.

Turning to `CSc1cccc2cc(C(=O)NCCc3nccs3)cnc12`, the IC50 in data set [1] is over 100 µM; in data set [3], over 40000 nM; in data set [2], over 100 µM; on STAM-binding protein it was over 100 µM.

`O=C(NCc1ccc2c(c1)OCO2)c1cnc2c(SSc3cccc4cc(C(=O)NCc5ccc6c(c5)OCO6)cnc34)cccc2c1`: the figures for the IC50 (in data set [1]; on STAM-binding protein) were over 10 µM and under 0.2 µM, respectively. In addition, the solubility entry in data set [5] is listed as “Insoluble”.

As for `O=C(NCC1CCCO1)c1cnc2c(SSc3cccc4cc(C(=O)NCC5CCCO5)cnc34)cccc2c1` (stereo not given), the IC50 in data set [1] amounted to 1 µM. In addition, in data set [5], the solubility entry is on record as “Soluble”.

On to `O=C(NCc1cccs1)c1ccc2cccc(SSc3cccc4ccc(C(=O)NCc5cccs5)nc34)c2n1`, for which the IC50 in data set [3] was over 100000 nM.

`COC(=O)c1cnc2c(SSc3cccc4cc(C(=O)OC)cnc34)cccc2c1` displayed an IC50 in data set [3] of 900 nM.

Regarding `Cc1cccc2cccnc12`, the IC50 in data set [3] is over 100000 nM; in the data set with HCT-116, over 100 µM.

In the case of `O=C(NCc1ccc(C(F)(F)F)cc1)c1cnc2c(SSc3cccc4cc(C(=O)NCc5ccc(C(F)(F)F)cc5)cnc34)cccc2c1`, the IC50 in data set [1] was over 10 µM; in data set [3] it was 800 nM; in data set [2], over 100 µM; at STAM-binding protein, 3.5 µM. Moreover, in data set [5], the solubility entry is reported as “Insoluble”.

With `O=C(NCCc1cccs1)c1cnc2c(SSc3cccc4cc(C(=O)NCCc5cccs5)cnc34)cccc2c1`, the concentration for half-maximal inhibition (IC50) in data set [1] came to 5 µM. Also, the solubility entry in data set [5] is “Soluble”.

On to `O=C(Nc1ncco1)c1cnc2c(SSc3cccc4cc(C(=O)Nc5ncco5)cnc34)cccc2c1`, for which the IC50 is over 10 µM in data set [1], 2600 nM in data set [3], 15 µM in data set [2] and 5 µM at STAM-binding protein. In addition, the solubility result in data set [5] is “Soluble”.

`O=C(NCc1ccccc1)c1ccc2cccc(SSc3cccc4ccc(C(=O)NCc5ccccc5)nc34)c2n1` showed a half-maximal inhibitory concentration (IC50) in data set [3] of over 100000 nM.

`CNC(=O)c1cnc2c(SSc3cccc4cc(C(=O)NC)cnc34)cccc2c1` showed an IC50 at STAM-binding protein of 4.1 µM.

In data set [3], `O=C(O)c1ccc2cccc(SSc3cccc4ccc(C(=O)O)nc34)c2n1` yielded an IC50 of over 20000 nM.

Molecule `O=C(O)c1cnc2c(SSc3cccc4cc(C(=O)O)cnc34)cccc2c1` showed an IC50 in data set [3] of 1100 nM.

For the molecule `Oc1cccc2cccnc12` [OXYQUINOLINE], the IC50 was over 100000 nM in data set [3] and 6 µM with HCT-116.

On to `O=C(NCc1ccc(F)cc1)c1cnc2c(SSc3cccc4cc(C(=O)NCc5ccc(F)cc5)cnc34)cccc2c1`, for which the IC50 was over 10 µM in data set [1], under 200 nM in data set [3] and 0.9 µM on STAM-binding protein. The solubility result in data set [5] is given as “Insoluble”.

As to `O=C(NCc1ccco1)c1ccnc2c(SSc3cccc4c(C(=O)NCc5ccco5)ccnc34)cccc12`, in data set [3], it took 2200 nM to reach half-maximal inhibition (IC50).

Turning to `O=C(NCc1ccccc1)c1cnc2c(SSc3cccc4cc(C(=O)NCc5ccccc5)cnc34)cccc2c1`, the IC50 (in data set [1]; at STAM-binding protein) was over 10 µM throughout.

`O=C(NCCc1ccco1)c1cnc2c(SSc3cccc4cc(C(=O)NCCc5ccco5)cnc34)cccc2c1`: the IC50 in data set [1] was determined as 1.4 µM. Further, the solubility result in data set [5] is “Soluble”.

Consider `O=C(NCc1ccccn1)c1cnc2c(SSc3cccc4cc(C(=O)NCc5ccccn5)cnc34)cccc2c1`, for which the IC50 in data set [1] was over 10 µM; in data set [3], 4000 nM; in data set [2] it was over 50 µM; on STAM-binding protein it was 17 µM. Moreover, the solubility result in data set [5] is “Soluble”.

For `COc1ccc(CNC(=O)c2cnc3c(SSc4cccc5cc(C(=O)NCc6ccc(OC)cc6)cnc45)cccc3c2)cc1`, the figures for the IC50 in data set [1] and in data set [3] were over 10 µM and under 200 nM, respectively. For the same molecule, the solubility entry in data set [5] was “Insoluble”.

In turn, `Nc1cccc2cccnc12` [8-AMINOQUINOLINE] had an IC50 in data set [3] of over 100000 nM.

`O=C(O)c1ccnc2c(SSc3cccc4c(C(=O)O)ccnc34)cccc12` registered an IC50 in data set [3] of 1300 nM.

Consider `O=C(CNC(=O)c1cnc2c(SSc3cccc4cc(C(=O)NCC(=O)NCC(=O)OCc5ccccc5)cnc34)cccc2c1)NCC(=O)OCc1ccccc1`, for which the IC50 in data set [1] was over 10 µM; in data set [3], over 5000 nM; in data set [2], over 30 µM; on STAM-binding protein it was 3.5 µM.

With `NC(=O)c1cnc2c(SSc3cccc4cc(C(N)=O)cnc34)cccc2c1`, the IC50 was determined as 1.2 µM in data set [1], 15.3 µM in data set [2] and 1.7 µM at STAM-binding protein.

As to `O=C(NCCc1nccs1)c1ccc2c(SSc3cccc4nc(C(=O)NCCc5nccs5)ccc34)cccc2n1`, the IC50 was over 100 µM in data set [1], over 100000 nM in data set [3], 35 µM in data set [2] and over 100 µM at STAM-binding protein.

On to `O=C(NCCc1nccs1)c1cnc2c(O)cccc2c1`, for which the IC50 is over 100 µM in data set [1], over 40000 nM in data set [3], over 100 µM in data set [2] and over 100 µM at STAM-binding protein.

For the molecule `Sc1cccc2ncccc12`, the figures for the IC50 (in data set [3]; in the data set on HCT-116) were over 100000 nM and over 100 µM, respectively.

The molecule `O=C(NCc1cccs1)c1ccnc2c(SSc3cccc4c(C(=O)NCc5cccs5)ccnc34)cccc12` gave a half-maximal inhibitory concentration (IC50) in data set [3] of 1000 nM.

On to `O=C(NCc1nccs1)c1cnc2c(SSc3cccc4cc(C(=O)NCc5nccs5)cnc34)cccc2c1`, for which, in data set [2], the IC50 amounted to 24 µM. Also, the solubility result in data set [5] is given as “Soluble”.

With `O=C(NCc1cccnc1)c1cnc2c(SSc3cccc4cc(C(=O)NCc5cccnc5)cnc34)cccc2c1`, the IC50 in data set [1] is over 10 µM; in data set [3], 3200 nM; in data set [2] it was over 100 µM. Further, in data set [5], the solubility entry is reported as “Soluble”.

Consider `CSc1cccc2cccnc12`, for which the IC50 in data set [3] is over 100000 nM; in the data set on HCT-116 it was over 100 µM.

Values taken from ChEMBL document CHEMBL4049386, “Discovery of an Inhibitor of the Proteasome Subunit Rpn11” (J Med Chem, 2017).
